Experimental findings from US20110015198A1, “DIARYLMETHYLAMIDE DERIVATIVE HAVING MELANIN-CONCENTRATING HORMONE RECEPTOR ANTAGONISM” (BANYU PHARMACEUTICAL CO., INC., priority 2008, published 2011) are described below.

This test has as its target T1, human MCH-1R (Homo sapiens, UniProt Q99705).
T1 construct: expressed in transfected cells; host or cells: CHO-K1 (American Type Culture Collection), plasmid vector pEF/myc/cyto
The test can be described thus: MCH binding inhibition test. The note with it: membrane samples from MCH-1R expressing CHO-K1 cells, 50 pM [125I]MCH, 25° C., one hour; read-out: IC50 (nM); 50% inhibition concentration (IC50 value) for specific [125I]MCH binding. An excerpt: Pharmacological test example: MCH binding inhibition test A cDNA sequence encoding human MCH-1R [FEBS Letters, Vol. 398, 253 (1996); Biochimica et Biophisica Acta, Vol. 1401, 216 (1998)] was cloned to a plasmid vector pEF/myc/cyto (manufactured by Invitrogen). The obtained expression vector was transfected to a host cell CHO-K1 (American Type Culture Collection) using Lipofectamine Plus reagent (manufactured by Life Technology) to provide MCH-1R expression cells.
Membrane samples prepared from the MCH-1R expression cells were incubated with a test compound and 50 pM [^125I]MCH (manufactured by NEN) in an assay buffer (50 mM Tris buffer containing 10 mM magnesium chloride, 2 mM ethylenediamine tetraacetate, 0.01% bacitracin, and 0.2% bovine serum albumin; pH 7.4) at 25° C. for one hour, followed by filtration through a glass filter GF/C (manufactured by Wattman). The glass filter was washed with 50 mM Tris buffer (pH 7.4) containing 10 mM magnesium chloride, 2 mM ethylenediamine tetraacetate, and 0.04% Tween-20, and then the radioactivity on the glass filter was determined Non-specific binding was measured in the presence of 1 μM human MCH, and, with respect to each test compound, 50% inhibition concentration (IC50 value) for specific [^125I]MCH binding was determined.

T1 sequence (Q99705 whole entry): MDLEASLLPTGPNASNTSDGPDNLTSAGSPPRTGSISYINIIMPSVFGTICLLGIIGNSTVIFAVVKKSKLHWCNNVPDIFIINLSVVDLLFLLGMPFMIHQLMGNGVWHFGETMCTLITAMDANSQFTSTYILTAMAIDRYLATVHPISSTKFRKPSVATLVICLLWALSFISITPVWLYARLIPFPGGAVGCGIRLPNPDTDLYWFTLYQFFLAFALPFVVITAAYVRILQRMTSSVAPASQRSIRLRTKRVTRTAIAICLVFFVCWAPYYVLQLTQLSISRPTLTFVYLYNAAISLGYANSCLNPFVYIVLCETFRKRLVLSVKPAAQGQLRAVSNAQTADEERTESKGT

What is called IC50 is the concentration that gives 50% inhibition. Regarding `CN(C(=O)C(C)(C)O)C(c1ccc(F)c(F)c1)c1ccc(CN2CCC(c3ccc(F)nc3)CC2)cn1` (single isomer, unassigned) [Example 1-37, (R)— or (S)—N-[(3,4-difluorophenyl)(5-{[4-(6-fluoropyridin-3-yl)piperidin-1-yl]methyl}pyridin-2-yl)methyl]-2-hydroxy-N,2-dimethylpropanamide], the IC50 was 17 nM.

Regarding `CC(NC(=O)C(F)F)(c1ccc(F)c(F)c1)c1ccc(CN2CCC(c3ccc(F)nc3)CC2)cn1` (single isomer, unassigned) [Example 1-58, (R)— or (S)—N-[1-(3,4-difluorophenyl)-1-(5-{[4-(6-fluoropyridin-3-yl)piperidin-1-yl]methyl}pyridin-2-yl)ethyl]-2,2-difluoroacetamide], the IC50 was 1.7 nM.

With `O=C1C(F)CCN1C(c1ccc(CN2CCC3(CC2)OCc2ccncc23)cc1)c1ccc(F)c(F)c1` (single isomer, unassigned) [Example 2-5, (3R)— or (3S)—[(R)— or (S)-1-{(3,4-difluorophenyl)[4-(1H,1′H-spiro[furo[3,4-c]pyridine-3,4′-piperidin]-1′-ylmethyl)phenyl]methyl}]-3-fluoropyrrolidin-2-one], the half-inhibitory concentration (IC50) was 0.18 nM.

For the molecule `Cn1cc2c(cc1=O)C1(CCN(Cc3ccc(C(c4ccc(F)c(F)c4)N4CCCS4(=O)=O)cc3)CC1)OC2` (centres unmarked) [Example 1-20, 1′-{4-[(3,4-difluorophenyl)(1,1-dioxideisothiazolidin-2-yl)methyl]benzyl}-5-methyl-3,5-dihydro-6H-spiro[furo[3,4-c]pyridine-1,4′-piperidin]-6-one], the IC50 worked out at 2.9 nM.

As for `O=C1CCCN1C(c1ccc(CN2CCC3(CC2)OCc2ccncc23)cc1)c1ccc(F)c(F)c1` (centres unmarked) [Example 2-1, 1-{(3,4-difluorophenyl)[4-(1H,1′H-spiro[furo[3,4-c]pyridine-3,4′-piperidin]-1′-ylmethyl)phenyl]methyl}pyrrolidin-2-one], the half-maximal inhibitory concentration (IC50) stood at 0.26 nM.
